Laboratory results as given in BindingDB's records for doi:10.1016/j.ejmech.2018.08.085 (China Pharmaceutical University, 2018).

Test: Binding affinity to VDR in scrambled siRNA-transfected human MCF7 cells assessed as cell growth inhibition by measuring reduction in BrdU incorporation after 16 hrs by ELISA

| IC50 | Structure (SMILES) |
| --- | --- |
| 970 nM | CCN(CC)CCNC(=O)c1ccc(C(CC)(CC)c2ccc(OCSC)c(C)c2)n1CC |
| 650 nM | CCN(CC)CCNC(=O)c1cc(C(CC)(CC)c2ccc(OCS(=O)(=O)c3ccccc3)c(C)c2)cn1CC |
| 4300 nM | CCn1c(C(=O)N[C@@H](C)CO)ccc1C(CC)(CC)c1ccc(OCC(O)C(C)(C)C)c(C)c1 (stereo partly drawn) |
